Reference: PubChem BioAssay AID328 (DTP/NCI, 2004)
“And” between values parts separate entries of the source, which are not always exact repeats. Equal entries are not always repeated. Toxic doses and inconclusive results are not listed.

Tested on: BDF1 mice, P388 leukemia ip, median survival T/C
Assay: NCI In Vivo Anticancer Drug Screen. Data for tumor model P388 Leukemia (intraperitoneal) in B6D2F1 (BDF1) mice
Settings: endpoint: median survival time, higher = longer survival
Method in brief: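 Mice carrying the transplantable tumour receive compound or vehicle. Survival is followed in each arm, and the treated measure is divided by the vehicle measure.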

[1] = dose: 100.0 mg/kg/injection, schedule: Q04DX003 (ip), vehicle: Klucel (hydroxypropylcellulose) (HPC)
[2] = dose: 200.0 mg/kg/injection, schedule: Q04DX003 (ip), vehicle: Klucel (hydroxypropylcellulose) (HPC)
[3] = dose: 100.0 mg/kg/injection, schedule: Q01DX009 (ip), vehicle: saline
[4] = dose: 100.0 mg/kg/injection, schedule: Q04DX002 (ip), vehicle: saline with Tween-80
[5] = dose: 200.0 mg/kg/injection, schedule: Q04DX002 (ip), vehicle: saline with Tween-80
[6] = dose: 50.0 mg/kg/injection, schedule: Q01DX009 (ip), vehicle: saline with Tween-80
[7] = dose: 100.0 mg/kg/injection, schedule: Q01DX009 (ip), vehicle: saline with Tween-80
[8] = dose: 200.0 mg/kg/injection, schedule: Q01DX009 (ip), vehicle: saline with Tween-80
[9] = dose: 25.0 mg/kg/injection, schedule: Q01DX009 (ip), vehicle: Klucel (hydroxypropylcellulose) (HPC)
[10] = dose: 50.0 mg/kg/injection, schedule: Q01DX009 (ip), vehicle: Klucel (hydroxypropylcellulose) (HPC)
[11] = dose: 200.0 mg/kg/injection, schedule: Q01DX009 (ip), vehicle: Klucel (hydroxypropylcellulose) (HPC)

SMILES: O=C(COc1ccc(Cl)c(Cl)c1)N(Cc1ccccc1)Cc1cccnc1
- T/C (dose: 50.0 mg/kg/injection, schedule: Q04DX003 (ip), vehicle: Klucel (hydroxypropylcellulose) (HPC)): 86 % of control
- T/C [1]: 95 % of control
- T/C [2]: 104 % of control

SMILES: O=C(Cn1cc(F)c(=O)[nH]c1=O)N1CCC2(CC1)SSC1(CCN(C(=O)Cn3cc(F)c(=O)[nH]c3=O)CC1)S2
- T/C [3]: 90 % of control
- T/C (dose: 100.0 mg/kg/injection, schedule: Q04DX003 (ip), vehicle: saline): 104 % of control
- T/C (dose: 200.0 mg/kg/injection, schedule: Q01DX009 (ip), vehicle: saline): 95 % of control
- T/C (dose: 200.0 mg/kg/injection, schedule: Q04DX003 (ip), vehicle: saline): 95 % of control
- T/C (dose: 400.0 mg/kg/injection, schedule: Q04DX003 (ip), vehicle: saline): 104 % of control

SMILES: COC1/C=C/OC2(C)Oc3c(C)c(O)c4c(O)c5c(c(O)c4c3C2=O)CN(C)C(=N5)/C(C)=C\C=C\C(C)C(O)C(C)C(O)C(C)C(OC(C)=O)C1C (stereo not given)
- T/C [4]: 97 % of control
- T/C [5]: 97 % of control
- T/C (dose: 400.0 mg/kg/injection, schedule: Q04DX002 (ip), vehicle: saline with Tween-80): 116 % of control

SMILES: COC1CC=CC2=C1CCC1C2CC2C(=O)C1(C)CCC2O (stereo not given)
- T/C (dose: 100.0 mg/kg/injection, schedule: Q01DX001 (ip), vehicle: other): 105 % of control
- T/C (dose: 200.0 mg/kg/injection, schedule: Q01DX001 (ip), vehicle: other): 100 % of control
- T/C (dose: 400.0 mg/kg/injection, schedule: Q01DX001 (ip), vehicle: other): 100 % of control

SMILES: c1ccc2c(c1)cc1c3nnnn3ncn21
- T/C [6]: 106 % of control
- T/C [7]: 104 % of control
- T/C [8]: 89 % of control

SMILES: CN(C)c1ccc(C=C2C(=O)CC(C)(C)CC2=O)cc1
- T/C [6]: 105 % of control
- T/C [7]: 95 % of control
- T/C [8]: 97 % of control

SMILES: CSc1sc2ccccc2[n+]1C
- T/C (dose: 25.0 mg/kg/injection, schedule: Q01DX009 (ip), vehicle: saline): 100 % of control and 104 % of control
- T/C (dose: 50.0 mg/kg/injection, schedule: Q01DX009 (ip), vehicle: saline): 90 % of control and 120 % of control
- T/C [3]: 86 % of control and 119 % of control

SMILES: CCOC(C)C(/C=N/NC(N)=S)=NNC(N)=S (stereo not given)
- T/C [9]: 110 % of control
- T/C [10]: 115 % of control
- T/C [6]: 107 % of control
- T/C [7]: 96 % of control
- T/C [1]: 109 % of control
- T/C (dose: 100.0 mg/kg/injection, schedule: Q04DX003 (ip), vehicle: saline with Tween-80): 86 % of control
- T/C (dose: 150.0 mg/kg/injection, schedule: Q01DX009 (ip), vehicle: Klucel (hydroxypropylcellulose) (HPC)): 110 % of control
- T/C [11]: 122 % of control
- T/C [2]: 100 % of control
- T/C (dose: 200.0 mg/kg/injection, schedule: Q04DX003 (ip), vehicle: saline with Tween-80): 91 % of control
- T/C (dose: 400.0 mg/kg/injection, schedule: Q04DX003 (ip), vehicle: Klucel (hydroxypropylcellulose) (HPC)): 104 % of control

SMILES: NC(=S)c1c(N)n(C2OC(CO)C(O)C2O)c2ncnc(N)c12 (stereo not given)
- T/C (dose: 12.5 mg/kg/injection, schedule: Q04DX003 (ip), vehicle: saline): 114 % of control
- T/C (dose: 25.0 mg/kg/injection, schedule: Q04DX003 (ip), vehicle: saline): 112 % of control

SMILES: COc1ccc2[nH]c(C)c(SC)c2c1
- T/C (dose: 50.0 mg/kg/injection, schedule: Q04DX002 (ip), vehicle: saline with Tween-80): 98 % of control
- T/C [4]: 100 % of control
- T/C [5]: 89 % of control

SMILES: O=[N+]([O-])O.[Ag]
- T/C (dose: 10.0 mg/kg/injection, schedule: Q01DX009 (ip), vehicle: saline with Tween-80): 96 % of control
- T/C (dose: 40.0 mg/kg/injection, schedule: Q01DX009 (ip), vehicle: saline with Tween-80): 92 % of control
- T/C (dose: 40.0 mg/kg/injection, schedule: Q04DX003 (ip), vehicle: saline with Tween-80): 90 % of control

SMILES: CN(C)CCC(O)Cc1ccccc1 (stereo not given)
- T/C (dose: 50.0 mg/kg/injection, schedule: Q04DX003 (ip), vehicle: acetone): 100 % of control
- T/C (dose: 100.0 mg/kg/injection, schedule: Q04DX003 (ip), vehicle: acetone): 100 % of control
- T/C (dose: 200.0 mg/kg/injection, schedule: Q04DX003 (ip), vehicle: acetone): 105 % of control

SMILES: O=C1NC(=O)C(c2ccccc2Cl)N1 (stereo not given)
- T/C (dose: 100.0 mg/kg/injection, schedule: Q01DX001 (ip), vehicle: Klucel (hydroxypropylcellulose) (HPC)): 104 % of control
- T/C (dose: 200.0 mg/kg/injection, schedule: Q01DX001 (ip), vehicle: Klucel (hydroxypropylcellulose) (HPC)): 112 % of control
- T/C (dose: 400.0 mg/kg/injection, schedule: Q01DX001 (ip), vehicle: Klucel (hydroxypropylcellulose) (HPC)): 112 % of control

SMILES: COc1cccc(C2N=NC3=C(CCCC3)N2O)c1O (stereo not given)
- T/C [9]: 95 % of control
- T/C [10]: 87 % of control
- T/C [11]: 96 % of control

SMILES: CCOC(=O)CCOc1ccccc1N(CCCl)CCCl
- T/C (dose: 0.66 mg/kg/injection, schedule: Q04DX003 (ip), vehicle: other): 100 % of control
- T/C (dose: 1.0 mg/kg/injection, schedule: Q04DX003 (ip), vehicle: other): 104 % of control
- T/C (dose: 1.5 mg/kg/injection, schedule: Q04DX003 (ip), vehicle: other): 104 % of control
- T/C (dose: 1.56 mg/kg/injection, schedule: Q04DX003 (ip), vehicle: other): 154 % of control
- T/C (dose: 2.25 mg/kg/injection, schedule: Q04DX003 (ip), vehicle: other): 114 % of control
- T/C (dose: 3.0 mg/kg/injection, schedule: Q04DX003 (ip), vehicle: saline sonified): 100 % of control
- T/C (dose: 3.13 mg/kg/injection, schedule: Q04DX003 (ip), vehicle: other): 181 % of control
- T/C (dose: 3.5 mg/kg/injection, schedule: Q04DX003 (ip), vehicle: saline with Tween-80): 172 % of control
- T/C (dose: 5.2 mg/kg/injection, schedule: Q04DX003 (ip), vehicle: saline with Tween-80): 190 % of control
- T/C (dose: 6.0 mg/kg/injection, schedule: Q04DX003 (ip), vehicle: saline sonified): 100 % of control
- T/C (dose: 9.0 mg/kg/injection, schedule: Q04DX003 (ip), vehicle: saline sonified): 100 % of control
- T/C (dose: 11.0 mg/kg/injection, schedule: Q04DX003 (ip), vehicle: other): 227 % of control
- T/C (dose: 12.0 mg/kg/injection, schedule: Q01DX009 (ip), vehicle: saline): 152 % of control
- T/C (dose: 12.0 mg/kg/injection, schedule: Q04DX003 (ip), vehicle: saline): 156 % of control
- T/C (dose: 12.5 mg/kg/injection, schedule: Q04DX003 (ip), vehicle: other): 222 % of control
- T/C (dose: 16.5 mg/kg/injection, schedule: Q04DX003 (ip), vehicle: other): 294 % of control
- T/C (dose: 25.0 mg/kg/injection, schedule: Q04DX003 (ip), vehicle: other): 150 % of control
- T/C (dose: 25.0 mg/kg/injection, schedule: Q04DX003 (ip), vehicle: saline sonified): 159 % of control
- T/C (dose: 50.0 mg/kg/injection, schedule: Q04DX003 (ip), vehicle: saline sonified): 159 % of control
- T/C (dose: 100.0 mg/kg/injection, schedule: Q04DX003 (ip), vehicle: saline sonified): 168 % of control

SMILES: NC(Cc1nn[nH]n1)C(=O)O (stereo not given)
- T/C (dose: 100.0 mg/kg/injection, schedule: Q01DX009 (ip), vehicle: water): 100 % of control
- T/C (dose: 100.0 mg/kg/injection, schedule: Q04DX003 (ip), vehicle: water): 97 % of control
- T/C (dose: 200.0 mg/kg/injection, schedule: Q01DX009 (ip), vehicle: water): 94 % of control
- T/C (dose: 200.0 mg/kg/injection, schedule: Q04DX003 (ip), vehicle: water): 96 % of control
- T/C (dose: 400.0 mg/kg/injection, schedule: Q01DX009 (ip), vehicle: water): 94 % of control
- T/C (dose: 400.0 mg/kg/injection, schedule: Q04DX003 (ip), vehicle: water): 90 % of control

SMILES: O=[N+]([O-])c1ccccc1N/N=C\c1c(Cl)n(-c2ccccc2)c2ccccc12
- T/C (dose: 100.0 mg/kg/injection, schedule: Q04DX002 (ip), vehicle: Klucel (hydroxypropylcellulose) (HPC)): 90 % of control
- T/C (dose: 200.0 mg/kg/injection, schedule: Q04DX002 (ip), vehicle: Klucel (hydroxypropylcellulose) (HPC)): 99 % of control
- T/C (dose: 400.0 mg/kg/injection, schedule: Q04DX002 (ip), vehicle: Klucel (hydroxypropylcellulose) (HPC)): 115 % of control

SMILES: n1nc(Nc2nn[nH]n2)n[nH]1
- T/C [10]: 90 % of control
- T/C (dose: 100.0 mg/kg/injection, schedule: Q01DX009 (ip), vehicle: Klucel (hydroxypropylcellulose) (HPC)): 107 % of control
- T/C [11]: 110 % of control

SMILES: C[N+](C)(C)Cc1ccccc1
- T/C (dose: 25.0 mg/kg/injection, schedule: Q04DX003 (ip), vehicle: saline with Tween-80): 95 % of control
- T/C (dose: 50.0 mg/kg/injection, schedule: Q04DX003 (ip), vehicle: saline with Tween-80): 112 % of control
